Experiment [1] has as its system WT human beige adipocytes. Description: Seahorse Mitochondrial Stress Test, oxygen consumption rate in WT human beige adipocytes. Format: cell-based. The settings on record: 1 μM, 24 h, WT hiPSC-derived beige adipocytes, vs DMSO (FIGS. 2A-2C). The method, then:
(§1) FIGS. 2A-2F. SP-8356, emodin, and IT603 increase energy expenditure in human beige adipocytes in a UCP1-independent manner. WT or UCP1 knockout hiPSCs were differentiated to beige adipocytes followed by treatment with SP-8356 (1 μM), Emodin (1 μM), and IT603 (1 μM) for 24 h, respectively. DMSO was used as the vehicle control. The oxygen consumption rate (OCR) was examined by the Seahorse Mitochondrial Stress Test assay. (FIGS. 2A-2C) OCR in WT human beige adipocytes treated with SP-8356, Emodin, and IT603, respectively. (FIGS. 2D-2F) OCR in UCP1 knockout human beige adipocytes treated with SP-8356, Emodin, and IT603, respectively. *p<0.05, **p<0.01. A total of 20 days was required for hiPSC differentiation into beige adipocytes. We used BMP4 (10 ng/mL) and ActivinA (25 ng/mL) from day 0 to day 4 to induce mesodermal differentiation in the first stage. We then induce mesodermal progenitors to differentiate into adipocyte progenitors with insulin ([…]), isobutylmethylxanthine (IBMX) (500 μmol/L), dexamethasone (1 μmol/L), and indomethacin (50 μmol/L) from day 4 to day 10. Eventually, mature beige adipocytes will be formed by insulin (1 μg/mL) induction on day 10 to 20. […] were plated in the XF96 plates (Agilent Technologies, Inc., Santa Clara, CA) and differentiated into the beige adipocytes. The XF Cell Mito Stress Test Kit (Seahorse Bioscience, 103015-100) was used to perform the assay by following the manufacturer's instructions.

For experiment [2], the system named is UCP1 knockout human beige adipocytes. Description: Seahorse Mitochondrial Stress Test, oxygen consumption rate in UCP1 knockout human beige adipocytes. Format: cell-based. The following applies: 1 μM, 24 h, UCP1 knockout hiPSC-derived beige adipocytes, vs DMSO (FIGS. 2D-2F). Here is the method: as §1
In experiment [3] the test system is LETMD1. Description: LETMD1-tdTomato reporter hiPSC-derived beige adipocytes, red fluorescence. The following applies: 0.1 μM, 24 h, LETMD1 reporter hiPSC-derived beige adipocytes (FIG. 1C). Format: cell-based, human. Here is the method: (§2) FIGS. 1A-1C. Generation and characterization of the LETMD1-tdTomato reporter hiPSC. (FIG. 1A) Schematic illustration of the knock-in design for the LETMD1-tdTomato reporter hiPSCs. (FIG. 1B) hiPSCs were differentiated into beige adipocytes and treated with β3 adrenergic receptor (β3-AR) agonist Mirabegron (0.1 μM) for 24 h and subjected to RNA-seq. The fold change of LETMD1 and its analogue LETM1 were plotted. (FIG. 1C) Representative images of tdTomato fluorescence intensity in LETMD1 reporter hiPSC-derived beige adipocytes treated with or without Mirabegron (0.1 μM) for 24 h.
A total of 20 days was required for hiPSC differentiation into beige adipocytes. […]
LETMD1 reporter hiPSCs were plated in the 96-well plates and differentiated into beige adipocytes. […] After that, the red fluorescent signals were quantified by the ThermoFisher (Waltham, MA) Varioskan Multimode Microplate Reader. […] measurement for each compound was normalized to the vehicle control group.
(§3) To monitor the endogenous LETMD1 expression in human iPSCs with ease, we generated a fluorescent protein-based reporter human iPS cell line using a CRISPR/Cas9-mediated knock-in (KI) system (FIG. 1A). […] This cell line enables us to monitor the endogenous expression of LETMD1 in a high-throughput manner using the red fluorescence intensity as a surrogate.

Experiment [4] has as its system LETMD1. Description: RNA-seq of LETMD1 mRNA in hiPSC-derived beige adipocytes. Format: cell-based, human. The following applies: 0.1 μM, 24 h, RNA sequencing (FIG. 1B). The method, then: as §2
A total of 20 days was required for hiPSC differentiation into beige adipocytes. We used BMP4 (10 ng/mL) and ActivinA (25 ng/mL) from day 0 to day 4 to induce mesodermal differentiation in the first stage. We then induce mesodermal progenitors to differentiate into adipocyte progenitors with insulin ([…]), isobutylmethylxanthine (IBMX) (500 μmol/L), dexamethasone (1 μmol/L), and indomethacin (50 μmol/L) from day 4 to day 10. […]
as §3

Turning to `COc1cc(Br)cc(/C=C2/NC(=S)NC2=O)c1O` [IT603], the “oxygen consumption rate (OCR)” value is recorded as “showed most significant capacity to elevate the OCR” in experiment [1] and “enhanced the OCR” in experiment [2].

For the compound `Nc1nc(CC(=O)Nc2ccc(CCNC[C@H](O)c3ccccc3)cc2)cs1` [Mirabegron], the “density of tdTomato fluorescent protein” value in the experiment on LETMD1 [3] is given as “increased significantly”. In the experiment on LETMD1 [4], the “mRNA level of LETMD1” value was “significantly increased”.

`COc1cc(/C=C/C2=CC(=O)[C@H]3C[C@@H]2C3(C)C)cc(O)c1O` [SP-8356]: the “oxygen consumption rate (OCR)” value in experiment [1] is listed as “showed most significant capacity to elevate the OCR”; in experiment [2], “enhanced the OCR”.

`Cc1cc(O)c2c(c1)C(=O)c1cc(O)cc(O)c1C2=O` [emodin]: the “oxygen consumption rate (OCR)” value in experiment [1] is listed as “showed most significant capacity to elevate the OCR”; in experiment [2] it was “enhanced the OCR”.

The record behind these values is US20250017998A1, “SP-8356, EMODIN, AND IT603 ENHANCE BEIGE ADIPOCYTE ACTIVITY AND ALLEVIATE OBESITY AND DIABETES VIA UNCOUPLING PROTEIN 1 (UCP1)-INDEPENDENT MECHANISM” (The Chinese University of Hong Kong, priority 2023, published 2025).
